Two compounds from paper PMC10485906, “Development of a Dihydroquinoline–Pyrazoline GluN2C/2D-Selective Negative Allosteric Modulator of the N-Methyl-D-aspartate Receptor” (ACS Chemical Neuroscience, 2023) can be followed below.

Chain of CYP3A4 (P08684 whole entry): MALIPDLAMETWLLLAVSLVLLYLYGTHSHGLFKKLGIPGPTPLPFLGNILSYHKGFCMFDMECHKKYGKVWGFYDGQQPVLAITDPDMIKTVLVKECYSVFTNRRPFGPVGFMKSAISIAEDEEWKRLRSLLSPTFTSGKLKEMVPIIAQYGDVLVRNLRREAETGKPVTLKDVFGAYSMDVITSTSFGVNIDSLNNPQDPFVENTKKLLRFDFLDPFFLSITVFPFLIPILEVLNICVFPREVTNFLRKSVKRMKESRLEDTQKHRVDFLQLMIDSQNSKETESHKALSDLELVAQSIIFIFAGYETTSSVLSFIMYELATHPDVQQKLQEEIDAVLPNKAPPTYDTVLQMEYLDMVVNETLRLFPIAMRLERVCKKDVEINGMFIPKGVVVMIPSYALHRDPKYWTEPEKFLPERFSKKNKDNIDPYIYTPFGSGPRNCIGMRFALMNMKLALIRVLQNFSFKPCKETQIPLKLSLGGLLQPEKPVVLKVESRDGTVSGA

The first series concerns the target CYP3A4 (Homo sapiens, UniProt P08684). In words: biochemical.
Details: not given
As to `CC(C)OC(=O)CC(F)(F)C(=O)N1N=C(c2c(-c3ccc(Cl)cc3)c3ccccc3[nH]c2=O)CC1c1ccc(Cl)cc1` (stereo not drawn) [2m], the IC50 – broadly, the concentration that gives 50% inhibition – was 6.3 ± 1.1 µM.
Compound `O=C(O)CC(F)(F)C(=O)N1N=C(c2c(-c3ccc(Cl)cc3)c3ccccc3[nH]c2=O)CC1c1ccc(Cl)cc1` (stereo not drawn) [2i] had a concentration for half-maximal inhibition (IC50) of over 20 µM.

Test system in another series: not listed separately
The experiment in a line: Liver microsome stability, human. It counts as in vitro ADME. Conditions: human liver microsomes. Here is the method:
Human liver microsomes (HLMs, 20 mg/mL) and CD-1 mouse liver microsomes (MLMs, 20 mg/mL) were purchased from Xenotech. NADPH was purchased from Sigma-Aldrich and prepared in 10 mM stock solutions of distilled H2O (Invitrogen UltraPure). Verapamil and diphenhydramine were both purchased from Sigma-Aldrich and served as positive controls for HLM and MLM stability, respectively. Test compounds and positive controls were initially dissolved in DMSO to make 10 mM stock solutions. Sample solutions were then further diluted in 70% MeOH/H2O or 100% MeCN to 500 μM. Next, the reactions were prepared by mixing human or mouse liver microsomes (55 μL) with potassium phosphate buffer (100 mM, […]) in 1.5 mL Eppendorf tubes. The test compounds (6.6 μL of 500 μM solution) were subsequently added to the suspensions, and the reaction mixtures were incubated at 37 °C for 5 min. Afterward, the liver microsome reactions were initiated with 110 μL of 10 mM NADPH and further incubated at 37 °C for the designated time course of the study. This procedure provided experiments with a final volume of 1100 μL (<0.6% organic solvent content), a concentration for HLMs and MLMs of 1 mg/mL, and a final test compound concentration of 3 μM. Aliquots (100 μL) were removed from each reaction mixture in duplicate at 0, 5, 10, 15, and 30 min time intervals and quenched with 100 μL of cold internal standard solution (ISTD, 2 μM 7-ethoxy-d5-coumarin in MeOH or MeCN). Quenched aliquots were then centrifuged at 12 500 g for 5–10 min, and the resulting supernatants were withdrawn and placed in LC-MS vials to be analyzed by LC-MS/MS (Agilent G6460C QQQ MS coupled with an Infinity II 1260 HPLC). Each test compound was run in tandem with positive and negative control experiments for quality assurance. Positive control reactions were conducted at a final volume of 550 μL for a single run at each time point. Lastly, the negative control experiment was conducted with test compounds and liver microsomes in the absence of NADPH (150 μL) and analyzed at the 30 min time point.
(§1) For both LM and plasma assays, each data point was analyzed in triplicate using between blank washes to avoid carry over and to equilibrate the column for the subsequent runs. Averages of these triplicates for individual compounds at each time point were then normalized to the data at 0 min, representing 100% of the test compound remaining or 0% metabolism. Half-lives (t1/2) were calculated by plotting ln of % test compound remaining versus time and performing linear regression to determine slope. Slope = −k and t1/2 = 0.693/k for first-order kinetics (see Figures S5 and S6 for a representative example).
Turning to `CC(C)OC(=O)CC(F)(F)C(=O)N1N=C(c2c(-c3ccc(Cl)cc3)c3ccccc3[nH]c2=O)CC1c1ccc(Cl)cc1` (stereo not drawn) [2m], the intrinsic clearance (microsomal CLint) (in general, the capacity of the preparation to metabolise the compound, expressed as a volume cleared per time) at 3 μM is 173 µL/min/mg.
On the same count and under the same terms, to `O=C(O)CC(F)(F)C(=O)N1N=C(c2c(-c3ccc(Cl)cc3)c3ccccc3[nH]c2=O)CC1c1ccc(Cl)cc1` (stereo not drawn) [2i] belongs under 23 µL/min/mg.

Staying with this series, now noted: liver microsomes, incubation up to 30 min, 3 μM, read-out: liver microsome stability T1/2, human.
For `CC(C)OC(=O)CC(F)(F)C(=O)N1N=C(c2c(-c3ccc(Cl)cc3)c3ccccc3[nH]c2=O)CC1c1ccc(Cl)cc1` (stereo not drawn) [2m], the half-life at 3 μM turned out to be 4 min.
With `O=C(O)CC(F)(F)C(=O)N1N=C(c2c(-c3ccc(Cl)cc3)c3ccccc3[nH]c2=O)CC1c1ccc(Cl)cc1` (stereo not drawn) [2i], the half-life at 3 μM is over 30 min.

Still in this series, the particulars now being: liver microsomes, over the assay time course (30 min), read-out: % remaining, human LMs.
Turning to `O=C(O)CC(F)(F)C(=O)N1N=C(c2c(-c3ccc(Cl)cc3)c3ccccc3[nH]c2=O)CC1c1ccc(Cl)cc1` (stereo not drawn) [2i], the amount remaining at 0.5 h, 3 µM was over 95%.

For a further series, the target named is T1, CYP2D6 (Homo sapiens, UniProt P10635).
T1 construct: purchased Corning; host or cells: insect cells (microsomes)
T1 sequence (P10635 whole entry): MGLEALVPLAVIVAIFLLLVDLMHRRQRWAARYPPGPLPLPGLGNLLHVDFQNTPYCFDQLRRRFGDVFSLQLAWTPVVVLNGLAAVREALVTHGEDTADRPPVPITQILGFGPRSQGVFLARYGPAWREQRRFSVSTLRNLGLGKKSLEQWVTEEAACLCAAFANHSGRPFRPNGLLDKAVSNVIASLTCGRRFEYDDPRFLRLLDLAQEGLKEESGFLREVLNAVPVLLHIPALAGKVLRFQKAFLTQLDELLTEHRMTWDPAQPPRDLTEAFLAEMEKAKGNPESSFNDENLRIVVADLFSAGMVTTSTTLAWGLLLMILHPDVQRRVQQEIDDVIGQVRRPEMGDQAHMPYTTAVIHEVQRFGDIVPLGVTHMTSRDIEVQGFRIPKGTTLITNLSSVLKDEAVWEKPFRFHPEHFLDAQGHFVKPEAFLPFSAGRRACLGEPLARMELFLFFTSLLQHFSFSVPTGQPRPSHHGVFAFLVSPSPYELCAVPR
In words: Fluorometric CYP450 enzyme inhibition assay, CYP2D6. Conditions: n = 2 (2k n = 4). Type of series: in vitro ADME.
`CC(C)OC(=O)CC(F)(F)C(=O)N1N=C(c2c(-c3ccc(Cl)cc3)c3ccccc3[nH]c2=O)CC1c1ccc(Cl)cc1` (stereo not drawn) [2m] registered an IC50 of over 20 µM.
Still for that read-out and setting: with `O=C(O)CC(F)(F)C(=O)N1N=C(c2c(-c3ccc(Cl)cc3)c3ccccc3[nH]c2=O)CC1c1ccc(Cl)cc1` (stereo not drawn) [2i] the figure was over 20 µM.

Test system in a further series: not listed separately
The experiment in a line: Plasma stability, mouse. Type of series: in vitro ADME. To be noted: male, BALB/C, mouse, mouse plasma; incubation up to 120 min; 3 μM; read-out: plasma stability T1/2, mouse. The procedure: Human plasma (lithium heparin (LiHep) mixed, gender pooled, 0.2 μm filtered) and mouse plasma (BALB/C, LiHep mixed, male pooled, 0.2 μm filtered) were purchased from BioIVT. Procaine (Sigma-Aldrich) served as a positive control for both human and mouse plasma experiments. Test compounds and positive controls were initially dissolved in DMSO to make 10 mM stock solutions. The solutions of test and control compounds were then further diluted in 70% MeOH/H2O or 100% MeCN to 500 μM. Next, the human or mouse plasma (994 μL) was aliquoted into 1.5 mL Eppendorf tubes with duplicates (reactions A and B) being prepared for each compound. The plasma was then incubated at 37 °C for 10 min. Afterward, the reaction was initiated by the addition of the test compound (6 μL of 500 μM solution) and further incubated at 37 °C for the designated time course of the study. This procedure provided duplicate experiments with a final volume of 1000 μL (<0.6% organic solvent content) and a final test compound concentration of 3 μM. Aliquots (100 μL) were removed from each reaction mixture at 0, 15, 30, 60, and 120 min time intervals and quenched with 150 μL of cold ISTD solution (2 μM 7-ethoxy-d5-coumarin in MeOH or MeCN). Quenched aliquots were then centrifuged at 15,000 g for 30–45 min, and the resulting supernatants (∼70 μL) were withdrawn and placed in LC-MS vials to be analyzed by LC-MS/MS (Agilent G6460C QQQ MS coupled with an Infinity II 1260 HPLC). Each test compound was run in tandem with positive and negative control experiments for quality assurance. The positive control reaction was conducted at a final volume of 1000 μL for a single run at each time point. Finally, the negative control experiment was conducted with test compounds in DPBS (143 μL) and analyzed at the 120 min time point.
as §1
On to `CC(C)OC(=O)CC(F)(F)C(=O)N1N=C(c2c(-c3ccc(Cl)cc3)c3ccccc3[nH]c2=O)CC1c1ccc(Cl)cc1` (stereo not drawn) [2m], for which the half-life at 3 μM amounted to 37 min.
Turning to `O=C(O)CC(F)(F)C(=O)N1N=C(c2c(-c3ccc(Cl)cc3)c3ccccc3[nH]c2=O)CC1c1ccc(Cl)cc1` (stereo not drawn) [2i], the half-life at 3 μM is over 120 min.

Still in this series, the particulars now being: male, BALB/C, mouse, plasma; over the assay time course.
As to `O=C(O)CC(F)(F)C(=O)N1N=C(c2c(-c3ccc(Cl)cc3)c3ccccc3[nH]c2=O)CC1c1ccc(Cl)cc1` (stereo not drawn) [2i], the share remaining at 120 min, 3 µM was over 95%.

Test system in the next series: not listed separately
In words: Brain homogenate tissue binding and stability (RED device). Type of series: in vitro ADME, mouse. Conditions: C57BL/6, mouse, brain homogenate (4 times diluted), pH 7.4, mouse brain tissue binding (free fraction in brain); read-out: % Unbound. The procedure: Carbamazepine (Apin Chemicals) served as a positive control for brain tissue binding. Test compounds and the positive control were initially dissolved in DMSO to make 1 mM stock solutions. […] A rapid equilibrium dialysis (RED) device (Thermo Scientific) containing a dialysis membrane with a molecular weight cutoff of 8000 Da was used to assess tissue binding and metabolic stability. […] The test compounds and positive control (200 μL of 5 μM solution) were added to the red chamber of the dialysis insert, while the white chamber was filled with dialysis buffer (350 μL). The RED device was then sealed with an adhesive film and incubated at 37 °C with shaking (300 rpm) for 4 h. For the initial time point (t = 0 min), 50 μL aliquots of test compounds and the positive control were added to 96-deep well plates (0.7 mL per well) and quenched with 400 μL of MeCN. Following dialysis, another 50 μL aliquot of the tested samples was removed from each well (brain homogenate and buffer) and diluted with an equal volume of the opposite matrix to nullify any matrix effects. […] The supernatant (100 μL) was subsequently transferred to 96-deep well plates for LC-MS/MS analysis. Prodrug metabolism and 2i concentrations were determined by fit-for-purpose LC-MS/MS methods on a nine-point calibration curve ranging from 0.12 to 7.5 μM.
Take `O=C(O)CC(F)(F)C(=O)N1N=C(c2c(-c3ccc(Cl)cc3)c3ccccc3[nH]c2=O)CC1c1ccc(Cl)cc1` (stereo not drawn) [2i]: the fraction unbound at 4 h, 5 µM was under 0.001.

The series is the same for the next values; noted with them: C57BL/6, mouse, brain homogenate (4 times diluted), pH 7.4, mouse brain tissue binding, RED, 4 h; read-out: % Bound Mean ± SD (converted).
Consider `O=C(O)CC(F)(F)C(=O)N1N=C(c2c(-c3ccc(Cl)cc3)c3ccccc3[nH]c2=O)CC1c1ccc(Cl)cc1` (stereo not drawn) [2i], for which the fraction unbound at 4 h, 5 µM was under 0.001.

Still in this series, the particulars now being: C57BL/6, mouse, brain homogenate (4 times diluted), pH 7.4, mouse brain tissue binding, RED, 4 h; read-out: % Bound R1 (converted).
Take `O=C(O)CC(F)(F)C(=O)N1N=C(c2c(-c3ccc(Cl)cc3)c3ccccc3[nH]c2=O)CC1c1ccc(Cl)cc1` (stereo not drawn) [2i]: the fraction unbound at 4 h, 5 µM is under 0.001.

Still in this series, the particulars now being: C57BL/6, mouse, brain homogenate (4 times diluted), pH 7.4, mouse brain tissue binding, RED, 4 h; read-out: % Bound R2 (converted).
With `O=C(O)CC(F)(F)C(=O)N1N=C(c2c(-c3ccc(Cl)cc3)c3ccccc3[nH]c2=O)CC1c1ccc(Cl)cc1` (stereo not drawn) [2i], the fraction unbound at 4 h, 5 µM is under 0.001.

Staying with this series, now noted: C57BL/6, mouse, brain homogenate (4 times diluted), pH 7.4; starting concentration 5 μM; 4 h.
As to `CC(C)OC(=O)CC(F)(F)C(=O)N1N=C(c2c(-c3ccc(Cl)cc3)c3ccccc3[nH]c2=O)CC1c1ccc(Cl)cc1` (stereo not drawn) [2m], the share remaining at 4 h, 5 µM worked out at 56%.
For `O=C(O)CC(F)(F)C(=O)N1N=C(c2c(-c3ccc(Cl)cc3)c3ccccc3[nH]c2=O)CC1c1ccc(Cl)cc1` (stereo not drawn) [2i], the fraction remaining at 4 h, 5 µM stood at 105%.

Staying with this series, now noted: C57BL/6, pH 7.4; mouse brain tissue binding, RED, 4 h.
Compound `CC(C)OC(=O)CC(F)(F)C(=O)N1N=C(c2c(-c3ccc(Cl)cc3)c3ccccc3[nH]c2=O)CC1c1ccc(Cl)cc1` (stereo not drawn) [2m] yielded a recovery at 4 h, 5 μM of 51%.
On to `O=C(O)CC(F)(F)C(=O)N1N=C(c2c(-c3ccc(Cl)cc3)c3ccccc3[nH]c2=O)CC1c1ccc(Cl)cc1` (stereo not drawn) [2i], for which the recovery at 4 h, 5 μM is 57%.

The same series, now with this note: buffer chamber after 4 h dialysis.
`CC(C)OC(=O)CC(F)(F)C(=O)N1N=C(c2c(-c3ccc(Cl)cc3)c3ccccc3[nH]c2=O)CC1c1ccc(Cl)cc1` (stereo not drawn) [2m]: the “Average 2i Concentration, Buffer_Mice” value is given as “BLQ”.
